Entries after “also recorded” stand apart in the source; their conditions may differ. Marks after values point to notes of the source that are not given here. Square brackets hold non-standard residues; d marks the D form. Peptide text beside a SMILES is read from it. * marks the point of attachment. Leu(ol) = CC(C)C[C@H](N)CO; Octanoyl = CCCCCCCC(=O)*; Api = NC1(C(=O)O)CCNCC1; Aib = CC(C)(N)C(=O)O
Key:
[1] = tested on: B. cinerea; assay: Resazurin vital dye growth assay in microtiter wells; assay type: cell-based, Botrytis cinerea; set-up: key to Antifungal Activity: –, no activity; settings: for Growth Delay / fungal growth / activity against B. cinerea (in words): peptide 15 µM; for Growth Delay: PDB pH 6.9, 5 × 10^5 spores mL^−1, resazurin, 25 °C dark, vs untreated control, repeated three times; for fungal growth / activity against B. cinerea (in words): resazurin dye; for Antifungal Activity: summary of performance of Lys-containing analogs against B. cinerea
[2] = tested on: pronase E (a mixture of different proteases); settings: after 27 h, HPLC
[3] = tested on: trypsin; settings: HPLC
[4] = tested on: B. cinerea conidia; assay: Cell viability assay of conidia (Evan's blue staining, plating on PDA); assay type: cell-based, Botrytis cinerea; settings: 15 µM
[5] = tested on: B. cinerea; assay type: cell-based, Botrytis cinerea; settings: 15 µM, 96 h, absorbance at 450 nm
[6] = tested on: B. sorokiniana; assay type: cell-based, Bipolaris sorokiniana; settings: for growth inhibition at maximum concentration tested: 15 µM, 96 h, absorbance at 450 nm
[7] = tested on: B. cinerea; assay: Protection of grapevine leaves from B. cinerea infection; assay type: in vivo, Botrytis cinerea; settings: grapevine leaves cv. Glera, 50 µM, 7 dpi, vs water control, three experiments
[8] = tested on: B. cinerea; assay: Protection of grape berries from B. cinerea infection; assay type: in vivo, Botrytis cinerea; settings: 50 µM, vs control
[9] = tested on: F. graminearum; settings: for MIC: 96 h, pH 6.9
[10] = tested on: P. expansum; settings: for growth inhibition at maximum concentration tested: 15 µM, 96 h, absorbance at 450 nm
[11] = tested on: B. cinerea; assay: Protection of common bean leaves from B. cinerea infection; settings: for reduction of infected (symptomatic) leaf area: common bean leaves (Phaseolus vulgaris, Borlotto var. Teggia), peptide sprayed at 50 µM
Description: Leaves of common bean (Phaseolus vulgaris, Borlotto var. Teggia) were detached from 12 days-old plants grown in organic soil into a climatic chamber with a 14 h photoperiod and 22/20 °C day/night temperature.
Treatments were performed by spraying the peptides at different concentrations on leaves and berries. Water spraying was performed as a negative control.
Leaves were arranged on moist towels in plastic trays and inoculated with a suspension of 2.5 × 10^6 mL^−1 conidia of B. cinerea in potato dextrose broth (PDB). Ten microliters of the conidia suspension were dropped on two or three points apart on the leaf surface of common bean and grapevine leaves, respectively.
Inoculated leaves and berries were incubated in the dark at 25 °C in plastic bags to maintain humidity.
Seven days post-inoculation (dpi), the size of the symptomatic leaf area was measured from pictures taken with a Panasonic Lumix DMC-FZ2000 by using the graphic software “Fiji ImageJ” (GNU General Public License).
The experiment was repeated three times with leaves and four times with berries. Each treatment was performed with seven leaves of common bean and three leaves of the grapevine.
Data obtained in the infection experiments performed on common bean leaves were statistically analyzed by applying the one-way Anova Bonferroni–Holm test. The statistical analysis was performed within the groups of peptides tested at the same time compared to their respective control.

[12] = Water solubility of the peptides; assay type: physicochemical; settings: native peptide; solubilized in ethanol before dilution in water
Description: Peptides were produced by manual and semiautomatic solid-phase peptide synthesis (SPPS). To reduce the impact on the environment of the synthesis, a limited excess of reagents was employed in the coupling steps (1.5–2.5 equivalents of coupling reagents instead of the standard 4 equivalents-1 equivalent corresponds to the loading of the resin). Moreover, all steps were performed in the ecofriendly solvent mixture of dimethylsulfoxide/ethyl acetate 1:9 instead of the hazardous solvent N,N-dimethylformamide (DMF). We exploited ethyl cyano(hydroxyimino) acetate (Oxyma pure) and diisopropylcarbodiimide (DIC), classified by the ACS Green Chemistry Institute® Pharmaceutical Roundtable as two of the greenest coupling reagents, instead of the commonly employed O-benzotriazol-1-yl-1,1,3,3 tetramethyluronium hexafluorophosphate (HBTU)/1-hydroxy-1,2,3-benzotriazole (HOBt) mixture or HATU [2-(1H-7-aza-1,2,3-benzotriazol-1-yl)-1,1,3,3-tetramethyl uronium hexafluorophosphate]. The strategy reduced the environmental impact and synthetic costs by more than 70% compared to our previous methods based on standard procedure. By adopting a manual/semiautomatic synthetic approach, the amount of solvents and reagents were reduced relative to those used in automated synthesis. The steric hindrance of Aib makes it poorly reactive, to the point that standard procedures employ repeated couplings. […]

[13] = monitored every 12 h for seven days

| Molecule | Growth Delay [1, 13] [h] | fungal growth / activity against B. cinerea (in words) [1, 13] | Antifungal Activity [1] | Growth Delay ([1]; monitored for seven days) [h] | reduction of infected (symptomatic) leaf area ([11]; 7 dpi, vs water control) | also measured |
| --- | --- | --- | --- | --- | --- | --- |
| CCCCCCCC(=O)NC(C)(C)C(=O)N[C@@H](CCCCN)C(=O)N[C@@H](CC(C)C)C(=O)NC(C)(C)C(=O)N[C@@H](CCCCN)C(=O)NCC(=O)N[C@@H](CC(C)C)C(=O)NC(C)(C)C(=O)NCC(=O)N[C@H](C(=O)N[C@H](CO)CC(C)C)[C@@H](C)CC [Peptide 1] (Octanoyl-[Aib]KL[Aib]KGL[Aib]GI[Leu(ol)]) | 12 to 24 | delayed growth | + ^a |  |  | stability against pronase [2]: stable; time to digestion by trypsin [3]: less than 15 min |
| CCCCCCCC(=O)NC(C)(C)C(=O)N[C@@H](CCCCN)C(=O)N[C@@H](CC(C)C)C(=O)NC(C)(C)C(=O)NCC(=O)NCC(=O)N[C@@H](CC(C)C)C(=O)NC(C)(C)C(=O)NCC(=O)N[C@H](C(=O)N[C@H](CO)CC(C)C)[C@@H](C)CC [Peptide 2] (Octanoyl-[Aib]KL[Aib]GGL[Aib]GI[Leu(ol)]) | 36 to 48 | delayed growth | ++ |  |  |  |
| CCCCCCCC(=O)NC(C)(C)C(=O)NCC(=O)N[C@@H](CC(C)C)C(=O)NC(C)(C)C(=O)N[C@@H](CCCCN)C(=O)NCC(=O)N[C@@H](CC(C)C)C(=O)NC(C)(C)C(=O)NCC(=O)N[C@H](C(=O)N[C@H](CO)CC(C)C)[C@@H](C)CC [Peptide 3] | 0 | fungal growth was observed after 12 h | – |  |  |  |
| CCCCCCCC(=O)NC(C)(C)C(=O)NCC(=O)N[C@@H](CC(C)C)C(=O)NC(C)(C)C(=O)N[C@@H](CCCCN)C(=O)N[C@@H](CCCCN)C(=O)N[C@@H](CC(C)C)C(=O)NC(C)(C)C(=O)NCC(=O)N[C@H](C(=O)N[C@H](CO)CC(C)C)[C@@H](C)CC [Peptide 4] |  | No growth occurred | ++++ | >170 | > 95% | germination of conidia (microscopy, Evans blue) ([4]; 24 h incubation in PDB, 5 × 10^5 mL^−1 conidia): conidia did not germinate; fungal growth after rinsing and plating treated conidia on PDA (fungicidal activity) ([4]; treated 24 h, rinsed with distilled water, plated on PDA): No fungal growth was observed; growth inhibition at maximum concentration tested [5]: completely inhibited the growth; growth inhibition at maximum concentration tested [6]: strong growth inhibition effect; reduction of infected leaf area [7]: about 70%; increase in the number of asymptomatic berries [8]: threefold increase; growth inhibition at maximum concentration tested [9]: completely inhibited the growth; MIC [9]: 5 to 15 µM; growth inhibition at maximum concentration tested [10]: completely inhibited the growth; disease symptoms (in words) ([11]; common bean leaves, 15 µM): significant decrease in disease symptoms; disease symptoms (in words) ([11]; common bean leaves, 50 µM): almost complete annulment; reduction of lesion (symptomatic leaf) area ([11]; common bean leaves, peptide sprayed at 15 µM, 7 dpi, vs water control): about 75% |
| CCCCCCCC(=O)NC(C)(C)C(=O)NCC(=O)N[C@@H](CC(C)C)C(=O)NC(C)(C)C(=O)N[C@@H](CCCCN)C(=O)N[C@@H](CCCCN)C(=O)N[C@@H](CC(C)C)C(N)=O [Peptide 4c1] (Octanoyl-[Aib]GL[Aib]KKL-NH2) |  | inhibiting mycelial growth |  | >170 | ~55% |  |
| CCCCCCCC(=O)NC(C)(C)C(=O)N[C@@H](CCCCN)C(=O)N[C@@H](CCCCN)C(=O)N[C@@H](CC(C)C)C(=O)NC(C)(C)C(=O)NCC(=O)N[C@H](C(=O)N[C@@H](CC(C)C)C(N)=O)[C@@H](C)CC [Peptide 4c2] (Octanoyl-[Aib]KKL[Aib]GIL-NH2) |  | inhibiting mycelial growth |  | >170 | about 70% |  |
| CCCCCCCC(=O)NC(C)(C)C(=O)N[C@@H](CCCCN)C(=O)N[C@@H](CCCCN)C(=O)N[C@@H](CC(C)C)C(=O)NC(C)(C)C(=O)NCC(=O)N[C@H](C(=O)N[C@H](CO)CC(C)C)[C@@H](C)CC [Peptide 4c] (Octanoyl-[Aib]KKL[Aib]GI[Leu(ol)]) |  | inhibiting mycelial growth |  | >170 | ~55% |  |
| CCCCCCCC(=O)NC(C)(C)C(=O)NCC(=O)N[C@@H](CC(C)C)C(=O)NC(C)(C)C(=O)NCC(=O)N[C@@H](CCCCN)C(=O)N[C@@H](CC(C)C)C(=O)NC(C)(C)C(=O)NCC(=O)N[C@H](C(=O)N[C@H](CO)CC(C)C)[C@@H](C)CC [Peptide 5] |  | No growth occurred | ++++ | >170 | > 95% | growth inhibition at maximum concentration tested [5]: completely inhibited the growth; growth inhibition at maximum concentration tested [6]: strong growth inhibition effect; growth inhibition at maximum concentration tested [9]: completely inhibited the growth; MIC [9]: 5 to 15 µM; growth inhibition at maximum concentration tested [10]: completely inhibited the growth; disease symptoms (in words) ([11]; common bean leaves, 15 µM): significant decrease in disease symptoms; disease symptoms (in words) ([11]; common bean leaves, 50 µM): almost complete annulment |
| CCCCCCCC(=O)NC(C)(C)C(=O)NCC(=O)N[C@@H](CC(C)C)C(=O)NC(C)(C)C(=O)N[C@@H](CCCCN)C(=O)NC(C)(C)C(=O)N[C@@H](CC(C)C)C(=O)NC(C)(C)C(=O)NCC(=O)N[C@H](C(=O)N[C@H](CO)CC(C)C)[C@@H](C)CC [Peptide 6] | 12 to 24 | delayed growth | + |  |  |  |
| CCCCCCCC(=O)NC(C)(C)C(=O)N[C@@H](CCCCN)C(=O)N[C@@H](CC(C)C)C(=O)NC(C)(C)C(=O)NCC(=O)N[C@@H](CCCCN)C(=O)N[C@@H](CC(C)C)C(=O)NC(C)(C)C(=O)NCC(=O)N[C@H](C(=O)N[C@H](CO)CC(C)C)[C@@H](C)CC [Peptide 7] | 72 to 84 | delayed growth | ++ |  |  |  |
| CCCCCCCC(=O)NC(C)(C)C(=O)NCC(=O)N[C@@H](CC(C)C)C(=O)NC(C)(C)C(=O)NCC(=O)NCC(=O)N[C@@H](CC(C)C)C(=O)NC1(C(=O)NCC(=O)N[C@H](C(=O)N[C@H](CO)CC(C)C)[C@@H](C)CC)CCNCC1 [Peptide 8, [Api^8]-trichogin] (Octanoyl-[Aib]GL[Aib]GGL[Api]GI[Leu(ol)]) |  | No growth occurred |  | >170 |  | growth inhibition at maximum concentration tested [5]: completely inhibited the growth; growth inhibition at maximum concentration tested [6]: strong growth inhibition effect; growth inhibition at maximum concentration tested [9]: completely inhibited the growth; MIC [9]: 5 to 15 µM; growth inhibition at maximum concentration tested [10]: completely inhibited the growth |
| nOct-Aib-Gly^2-Leu-Aib-Gly^5-Gly-Leu-Aib^8-Gly-Ile-Lol [trichogin, trichogin GA IV, reference compound] | 0 | fungal growth was observed after 12 h; also recorded: completely inactive |  |  |  | water solubility (in words) [12]: poor water solubility; activity against B. sorokiniana (in words) [6]: inactive; activity against F. graminearum (in words) [9]: inactive; activity against P. expansum (in words) [10]: inactive |

Source: PMC7589190, “Targeted Amino Acid Substitutions in a Trichoderma Peptaibol Confer Activity against Fungal Plant Pathogens and Protect Host Tissues from Botrytis cinerea Infection” (International Journal of Molecular Sciences, 2020)
